Tested on: CCC cells from a breast cancer patient (ER+, PR−, HER2 (2+))
Experiment: Drug-sensitivity assay of cultured CCCs (Presto Blue cell growth/viability)
Assay type: cell-based, human
Settings: cultured CCCs grown in MammoCult media, 10 000 cells per well, 48 hours incubation, Presto Blue fluorescence vs vehicle-treated cells (FIG. 13)
Protocol: One or more frozen aliquot of RoboSep™ CD45-negative cell population (described in Example I and containing about 5×10^6 nucleated cells and about 1 000 to 3 000 CTCs based on Epimet™-positive staining) is cultured in the conditions described in Example II until approximately 600 000 cells are obtained (usually after 6 subculture steps). This amount of cells is sufficient for testing four distinct compounds in triplicate at four different concentrations using a plating density of approximately 5 000 to 10 000 cells/well in 96-well plates. Cells are plated onto ultra-low attachment microtiter plates at 5 000 to 10 000 cells/well in 125 μL of fresh MammoCult™ media in triplicates. Experimental and control samples (no cells added) are incubated for 24 hours at 37° C. and 5% CO2. […] Fluorescence intensity (FI) is determined using a spectrofluorometer (excitation: 530-560 nm; emission: 590 nm). Dose response curves are calculated as a percentage of untreated controls (FI590 of test agent dilution/FI590 of untreated control)×100 and the LD50 are calculated.
Cells were collected by aphaeresis from a breast cancer patient (ER+, PR−, HER2 (2+)) diagnosed with invasive lobular carcinoma and metastatic spread to bone, liver and the mediastinum. […] Cell growth/viability was assessed using Presto Blue®(Invitrogen). […] Fluorescence values use the excitation and emission peaks for resorufin. […]

SMILES	IC50 (Homo sapiens, low attachment 96-well plate, read-out: IC50 of inhibition of cell growth) [nM]	effect on cell growth (increasing concentrations)
COc1cccc2c1C(=O)c1c(O)c3c(c(O)c1C2=O)C[C@@](O)(C(=O)CO)C[C@@H]3O[C@H]1C[C@H](N)[C@@H](O)[C@H](C)O1 [epirubicin]	~1000	
CC(=O)O[C@H]1C(=O)[C@@]2(C)[C@H]([C@H](OC(=O)c3ccccc3)[C@]3(O)C[C@H](OC(=O)[C@H](O)[C@@H](NC(=O)c4ccccc4)c4ccccc4)C(C)=C1C3(C)C)[C@]1(OC(C)=O)CO[C@@H]1C[C@@H]2O [taxol, paclitaxel]		no effect

Source: patent US9057055B2, “Method of obtaining circulating cancer cell populations” (THE ROYAL INSTITUTION FOR THE ADVANCEMENT OF …, priority 2012, dated 2015)
